# Measured values as given in patent US6368788B1 (priority 1987, dated 2002).
# Marks after values point to notes of the source that are not given here.
# Columns and labels:
# [1] = test system: human peripheral blood T-lymphocytes; test: OKT4+ and OKT8+ lymphocytes from patients with secondary immunodeficiency after in vitro incubation; assay type: cell-based; details: for OKT4^+/OKT8^+ ratio / mean percentage of T-helper (OKT4^+) lymphocytes / mean percentage of T-suppressor (OKT8^+) lymphocytes: 45 minutes at 37° C.
# Excerpt: The effects of L-Glu-L-Trp on human peripheral blood T-lymphocytes was investigated using indirect immunofluorescence microscopy and OKT4 and OKT8 monoclonal antibodies (Ortho, USA) directed to lymphocyte cell surface differentiation antigens. For these studies lymphocytes were isolated from heparinized peripheral blood (25 units heparin/mL) isolated from 18 different donors with inflammatory lung diseases and chronic purulent bronchitis accompanied by a secondary immunodeficiency state. Lymphocytes were prepared by centrifugation on Ficoll-Hypaque, washed, and then incubated in vitro for 45 minutes at 37° C. in the presence (or absence) of L-Glu-L-Trp at concentrations of 1 mg/mL, 0.01 mg/mL, 0.0001 mg/mL. Following incubation the cells were washed with Medium 199 and the percentage of OKT4^+ (T-helper) and OKT8^+ (T-suppressor) lymphocytes determined by indirect immunofluorescent microscopy. The results presented in TABLE 51 show the mean percentages of OKT4^+ and OKT8^+ cells in this group of patients after incubation with Medium 199 (Control), or with L-Glu-L-Trp.
# [2] = test system: lymphocytes of thymus, spleen, lymph nodes, peripheral blood; test: Recovery of immune cells in irradiated guinea pigs (1 Gy); assay type: in vivo; details: for E-RFC / E-RFC (% Normal) / EA-RFC / EA-RFC (% Normal) / EAC-RFC / EAC-RFC (% Normal) / Lymphocytes / Lymphocytes (% Normal) / Lymphocyte Blastogenesis with Con-A / Neutrophil Cationic Protein Levels: 0.01 mg/kg daily 5 days
# Excerpt: X-irradiation an accepted experimental animal model for depressing cellular immune mechanisms operative in anti-bacterial, anti-viral, and anti-parasitic immunity. The levels of lymphocytes in thymus, spleen, and lymph node are decreased following sub-lethal radiation exposure, and the effects of L-Glu-L-Trp on recovery of immune function following radiation exposure were investigated in this model.
# 142 guinea pigs were exposed to 1 Gy of X-irradiation and then treated with L-Glu-L-Trp at a dose of 0.01 mg/kg daily for 5 days starting two days after the irradiation. Immunologic indices were determined at 5, 10, and 20 days by preparing samples of immune cells from thymus, spleen, lymph nodes, and peripheral blood. Cell preparations were analyzed to determine the content of lymphocytes, E-RFC (i.e., T-lymphocytes), EA-RFC (“activated” T-lymphocytes), and EAC-RFC (i.e., B-lymphocytes). (The materials and methods used in these analyses are presented following EXAMPLE 38, below. The results obtained in these experiments are summarized in TABLE 55. […]
# Neutrophil cationic proteins were determined according to the method of V. E. Pigarevsky and Yu. A. Mazing (1981). Briefly, blood smears were air dried, stained for 20 minutes in a buffered methanol.-fast green solution, washed in distilled water, and stained for an additional 30 minutes with Azure 11. The percentage of cells containing green-colored granules was determined by microscopically counting a minimum of 100-200 of the cells in the smears, and cation protein concentration was recorded as the mean cytotoxic coefficient (MCC) according to a modified formula of Astold & Berg.
# [3] = lymph node, 5 days post irradiation (1 Gy)
# [4] = lymph node, 10 days post irradiation (1 Gy)
# [5] = lymph node, 20 days post irradiation (1 Gy)
# [6] = peripheral blood, 5 days post-irradiation
# [7] = peripheral blood, 10 days post-irradiation
# [8] = peripheral blood, 20 days post-irradiation
# [9] = splenic, 5 days post irradiation (1 Gy)
# [10] = splenic, 10 days post irradiation (1 Gy)
# [11] = splenic, 20 days post irradiation (1 Gy)
# [12] = thymic, 5 days post irradiation (1 Gy)
# [13] = thymic, 10 days post irradiation (1 Gy)
# [14] = thymic, 20 days post irradiation (1 Gy)
substance,measurement,setting,value
L-Glu-L-Trp,Percentage of detectable OKT8+ T-suppressor cells,[1],did not alter the percentage of detectable OKT 8^+ T-suppressor cells
same,Percentage of detectable T-helpers (OKT4+),[1]; 1 and 0.01 mg/mL,increased the percentage of detectable T-helpers
same,OKT4^+/OKT8^+ ratio,[1]; Dose 0.0001 mg/ml,1.1
same,mean percentage of T-helper (OKT4^+) lymphocytes,[1]; Dose 0.0001 mg/ml,25.4 ± 2.3
same,mean percentage of T-suppressor (OKT8^+) lymphocytes,[1]; Dose 0.0001 mg/ml,23.1 ± 2.1
same,OKT4^+/OKT8^+ ratio,[1]; Dose 0.01 mg/ml,1.8*
same,mean percentage of T-helper (OKT4^+) lymphocytes,[1]; Dose 0.01 mg/ml,39.8 ± 2.4
same,mean percentage of T-suppressor (OKT8^+) lymphocytes,[1]; Dose 0.01 mg/ml,22.7 ± 1.8
same,OKT4^+/OKT8^+ ratio,[1]; Dose 1 mg/ml,1.9*
same,mean percentage of T-helper (OKT4^+) lymphocytes,[1]; Dose 1 mg/ml,39.7 ± 2.7
same,mean percentage of T-suppressor (OKT8^+) lymphocytes,[1]; Dose 1 mg/ml,21.4 ± 1.3
same,"Splenic B-lymphocytes (EAC-RFC), % of normal",[2]; day 5,82%
same,"Thymic T-lymphocyte counts, % of normal",[2]; day 5,67%
same,"Thymic lymphocytes, % of normal",[2]; day 5,82%
same,"Splenic B-lymphocytes (EAC-RFC), % of normal",[2]; day 10,100%
same,"Thymic T-lymphocyte counts, % of normal",[2]; day 10,51%
same,"Thymic lymphocytes, % of normal",[2]; day 10,56%
same,Lymph node T-lymphocyte counts,"[2]; guinea pig, in vivo","significantly increased T-lymphocyte counts in lymph nodes on days 5, 10 and 20"
same,E-RFC,[2]; [3],40 +/− 4** × 10^9/L
same,E-RFC (% Normal),[2]; [3],(122%)
same,EA-RFC,[2]; [3],20 +/− 3** × 10^9/L
same,EA-RFC (% Normal),[2]; [3],(111%)
same,EAC-RFC,[2]; [3],25 +/− 2** × 10^9/L
same,EAC-RFC (% Normal),[2]; [3],(45%)
same,Lymphocytes,[2]; [3],183 +/− 21* × 10^9/L
same,Lymphocytes (% Normal),[2]; [3],(73%)
same,E-RFC,[2]; [4],29 +/− 3** × 10^9/L
same,E-RFC (% Normal),[2]; [4],(88%)
same,EA-RFC,[2]; [4],17 +/− 2** × 10^9/L
same,EA-RFC (% Normal),[2]; [4],(94%)
same,EAC-RFC,[2]; [4],12 +/− 1* × 10^9/L
same,EAC-RFC (% Normal),[2]; [4],(21%)
same,Lymphocytes,[2]; [4],75 +/− 13* × 10^9/L
same,Lymphocytes (% Normal),[2]; [4],(30%)
same,E-RFC,[2]; [5],30 +/− 2** × 10^9/L
same,E-RFC (% Normal),[2]; [5],(91%)
same,EA-RFC,[2]; [5],25 +/− 4** × 10^9/L
same,EA-RFC (% Normal),[2]; [5],(139%)
same,EAC-RFC,[2]; [5],9 +/− 1* × 10^9/L
same,EAC-RFC (% Normal),[2]; [5],(16%)
same,Lymphocytes,[2]; [5],242 +/− 31** × 10^9/L
same,Lymphocytes (% Normal),[2]; [5],(96%)
same,Con-A responsiveness and neutrophil cationic proteins,[2]; peripheral blood,statistically significant decrease in Con-A responsiveness and increased levels of neutrophil cationic proteins
same,Lymphocyte Blastogenesis with Con-A,[2]; [6],44 +/− 4** %
same,Neutrophil Cationic Protein Levels,[2]; [6],1.42 +/− 0.15*
same,Lymphocyte Blastogenesis with Con-A,[2]; [7],67 +/− 5** %
same,Neutrophil Cationic Protein Levels,[2]; [7],1.54 +/− 0.09**
same,Lymphocyte Blastogenesis with Con-A,[2]; [8],49 +/− 2** %
same,Neutrophil Cationic Protein Levels,[2]; [8],1.63 +/− 0.11**
same,E-RFC,[2]; [9],48 +/− 4** × 10^9/L
same,E-RFC (% Normal),[2]; [9],(120%)
same,EA-RFC,[2]; [9],22 +/− 4** × 10^9/L
same,EA-RFC (% Normal),[2]; [9],(85%)
same,EAC-RFC,[2]; [9],60 +/− 5** × 10^9/L
same,EAC-RFC (% Normal),[2]; [9],(82%)
same,Lymphocytes,[2]; [9],378 +/− 36** × 10^9/L
same,Lymphocytes (% Normal),[2]; [9],(92%)
same,E-RFC,[2]; [10],29 +/− 3* × 10^9/L
same,E-RFC (% Normal),[2]; [10],(73%)
same,EA-RFC,[2]; [10],15 +/− 2* × 10^9/L
same,EA-RFC (% Normal),[2]; [10],(58%)
same,EAC-RFC,[2]; [10],73 +/− 5** × 10^9/L
same,EAC-RFC (% Normal),[2]; [10],(100%)
same,Lymphocytes,[2]; [10],147 +/− 18** × 10^9/L
same,Lymphocytes (% Normal),[2]; [10],(36%)
same,E-RFC,[2]; [11],45 +/− 4** × 10^9/L
same,E-RFC (% Normal),[2]; [11],(113%)
same,EA-RFC,[2]; [11],29 +/− 4** × 10^9/L
same,EA-RFC (% Normal),[2]; [11],(112%)
same,EAC-RFC,[2]; [11],82 +/− 9 × 10^9/L
same,EAC-RFC (% Normal),[2]; [11],(112%)
same,Lymphocytes,[2]; [11],260 +/− 32** × 10^9/L
same,Lymphocytes (% Normal),[2]; [11],(64%)
same,E-RFC,[2]; [12],252 +/− 26** × 10^9/L
same,E-RFC (% Normal),[2]; [12],(67%)
same,EA-RFC,[2]; [12],150 +/− 16** × 10^9/L
same,EA-RFC (% Normal),[2]; [12],(52%)
same,EAC-RFC,[2]; [12],4 +/− 1** × 10^9/L
same,EAC-RFC (% Normal),[2]; [12],(80%)
same,Lymphocytes,[2]; [12],395 +/− 27** × 10^9/L
same,Lymphocytes (% Normal),[2]; [12],(82%)
same,E-RFC,[2]; [13],195 +/− 21** × 10^9/L
same,E-RFC (% Normal),[2]; [13],(51%)
same,EA-RFC,[2]; [13],143 +/− 16** × 10^9/L
same,EA-RFC (% Normal),[2]; [13],(49%)
same,EAC-RFC,[2]; [13],3 +/− 0.4* × 10^9/L
same,EAC-RFC (% Normal),[2]; [13],(60%)
same,Lymphocytes,[2]; [13],276 +/− 26** × 10^9/L
same,Lymphocytes (% Normal),[2]; [13],(57%)
same,E-RFC,[2]; [14],343 +/− 30** × 10^9/L
same,E-RFC (% Normal),[2]; [14],(91%)
same,EA-RFC,[2]; [14],243 +/− 28** × 10^9/L
same,EA-RFC (% Normal),[2]; [14],(84%)
same,EAC-RFC,[2]; [14],4 +/− 0.4 × 10^9/L
same,EAC-RFC (% Normal),[2]; [14],(80%)
same,Lymphocytes,[2]; [14],423 +/− 40** × 10^9/L
same,Lymphocytes (% Normal),[2]; [14],(88%)
